Tests used:
Tetranychus urticae Koch [1] = experiment: Mite ovicide/larvicide (MIOVL) test; assay type: in vivo; conditions: eggs/immature mites on cowpea leaves sprayed with 1000 ppm solution; examined nine days following treatment; effect larvicidal (L)
Experimental: (§1) The remaining examples relate to the pesticidal use of compounds of this invention. In all these examples a stock solution for the compounds was prepared at 3000 ppm by dissolving 0.3 grams of the compound to be tested in 10 mL of acetone and adding 90 mL of distilled water plus four drops of ethoxylated sorbitan monolaurate, or a similar suitable wetting agent. For each example that follows, this stock solution was used and the specified dilutions made. All the tests discussed below, which involved treatment with compounds of this invention, were always repeated with controls, in which the active compound was not provided, to permit a comparison upon which the percent control was calculated. One day before treatment, a “figure 8” configuration of tree tanglefoot was applied to each of two cowpea primary leaves, one from each of two plants in a pot. In each Figure, the circle nearer the stem was designated for the mite ovicide/larvicide test and the circle further from the stem was designated for the mite adulticide test. Groups of adult mites (Tetranychus urticae Koch) were transferred into ovicide circles one day before treatment and the females were allowed to deposit eggs until one hour before treatment when they were removed. Plants were sprayed to run off with a 1000 ppm solution diluted from the 3000 ppm stock solution. […]

Tetranychus urticae Koch [2] = experiment: Mite adulticide (MI) test; assay type: in vivo; conditions: adult mites on cowpea leaves sprayed to run off with 1000 ppm solution; mites transferred one day after treatment, examined five days later
Experimental: as §1

melting point: 102 to 106 °C
SMILES: COc1ccc(-c2ccccc2)cc1[N+]([O-])=NC(=O)OC(C)C [Compound 1, 1-Methylethyl 2-(4-methoxy-[1,1′-biphenyl]-3-yl)diazenecarboxylate 2-oxide]
MIOVL (L) percent control (Tetranychus urticae Koch [1]): 100 % Control | MI percent control (Tetranychus urticae Koch [2]): 100 % Control
